# Measurements reported in patent US11234420B2, “Method for constructing PD-1 gene modified humanized animal model and use thereof” (priority 2016, dated 2022).
# Several values for one entry are separate records, joined by “and”; a condition that tells them apart may be missing. Equal values may be shown once. Entries after “also recorded” stand apart in the source; their conditions may differ.
# Key:
# Assay type in all cases: in vivo
# [1] = test system: mouse colon cancer cells MC38-hPDL1; assay: Combined use of Cisplatin with Keytruda or Tecentriq (Example 11), MC38-hPDL1 tumors in B-hPD-1 mice; settings: for Tumor volume Day 8: Day 8, group division, Cisplatin 10 mg/kg intravenous once, Keytruda 0.1 mg/kg i.p. once per 3 days x6, Tecentriq 1 mg/kg i.p. once per 2 days x8; for Tumor volume Day 18 / Tumor volume Day 25: doses as Table 9 (Cisplatin 10, Keytruda 0.1, Tecentriq 1 mg/kg); for Tumor volume Day 25: Day 25, end-point; for Tumor free situation: end-point; for weight change compared among groups: mouse, in vivo
# Experimental: B-hPD-1 homozygous mice (4-6 weeks old) were taken, 5×10^5 mouse colon cancer cells MC38-hPDL1 were subcutaneously inoculated at right side (the same as Example 10). When the tumor volume was about 100 mm^3, the mice were randomly divided into 6 control groups or treatment groups (n=7/group). For the treatment group, one or two of the above 3 drugs were randomly injected, the dosages were 0.1-10 mg/kg, and a blank solvent was injected for the control group. The tumor volume was measured and the mice were weighed twice a week. Moreover, euthanasia was performed when the tumor volume of a single mouse reached 3000 mm^3.
# [2] = test system: mouse colon cancer cells MC38; assay: Keytruda antibody efficacy pre-experiment (Example 10, Experiment 1), MC38 tumors in B-hPD-1 mice
# Experimental: (§1) B-hPD-1 homozygous mice (4-6 weeks old) were taken, mouse colon cancer cells MC38 or modified MC38-hPDL1 (i.e., PD-L1 gene humanized MC38 cells) were subcutaneously inoculated. When the tumor volume was about 100 mm^3, the mice were randomly divided into a control group or a treatment group. For the treatment group, one of the above 2 antibodies was randomly selected and administered at different dosages (0.3-25 mg/kg), and the same volume of a blank solvent was injected for the control group. The tumor volume was measured twice a week and the body weight were measured for each mouse. Moreover, euthanasia was performed when the tumor volume of a single mouse reached 3000 mm^3. The specific experiment scheme was as follows:
# Experiment 1 Keytruda antibody efficacy pre-experiment (n=6/group): after subcutaneous inoculation of MC38 cells to mice (5×10^5/100 μL PBS), the anti-human PD-1 antibody Keytruda was administered to the treatment group at 25 mg/kg through intraperitoneal injection, and the same volume of a blank solvent was injected for the control group; the administration frequency was one administration per 3 days for a total of 6 administrations;
# [3] = test system: mouse colon cancer cells MC38; assay: Keytruda antibody efficacy at different dosages (Example 10, Experiment 2), MC38 tumors in B-hPD-1 mice; settings: for Tumor volume Day 8: once per 3 days x6, Day 8, group division; for Tumor volume Day 32: Day 32, end-point; for Survival situation / Tumor free situation: end-point
# Experimental: as §1
# Experiment 2 Keytruda antibody efficacy experiments at different dosages: after subcutaneous inoculation of MC38 cells to mice (5×10^5/100 μL PBS), the anti-human PD-1 antibody Keytruda was administered to the treatment group (n=6/group) through intraperitoneal injection at different dosages (0.3-10 mg/kg), and the same volume of a blank solvent was injected for the control group (n=10/group); the administration frequency was one administration per 3 days for a total of 6 administrations;
# [4] = test system: modified mouse colon cancer cells MC38-hPDL1; assay: Tecentriq antibody efficacy at different dosages (Example 10, Experiment 4), MC38-hPDL1 tumors in B-hPD-1 mice; settings: for Tumor volume Day 8: once per 2 days x8, Day 8, group division; for Tumor volume Day 33: Day 33, end-point; for Survival situation / Tumor free situation: end-point
# Experimental: as §1
# Experiment 4 Tecentriq antibody efficacy experiments at different dosages (n=5/group): subcutaneous inoculation of MC38-PDL1 (2×10^5/100 μL PBS), the […] Tecentriq was administered to the treatment group through intraperitoneal injection at 1-10 mg/kg, and the same volume of a blank solvent was injected for the control group; the administration frequency was one administration per 2 days for a total of 8 administrations;
# [5] = test system: modified mouse colon cancer cells MC38-hPDL1; assay: Tecentriq antibody efficacy pre-experiment (Example 10, Experiment 3), MC38-hPDL1 tumors in B-hPD-1 mice
# Experimental: as §1
# Experiment 3 Tecentriq antibody efficacy pre-experiment (n=7/group): subcutaneous inoculation of MC38-PDL1 (5×10^5/100 μL PBS), the […] Tecentriq was administered to the treatment group at 3 mg/kg through intraperitoneal injection, and the same volume of a blank solvent was injected for the control group; the administration frequency was one administration per week for a total of 2 weeks;
# [6] = test system: mouse colon cancer cells MC38-hPDL1; assay: Screening anti-human PD-L1 antibodies (Example 12, Experiment 1), MC38-hPDL1 tumors in B-hPD-1 mice
# Experimental: Experiment 1: B-hPD-1 homozygous mice (4-6 weeks old) were taken, 5×10^5 mouse colon cancer cells MC38-hPDL1 were subcutaneously inoculated at right side (the same as Example 10). When the tumor volume was about 100 mm^3, the mice were randomly divided into the control group or treatment groups (n=5/group). For the treatment group, the positive control Tecentriq or one of two anti-human PD-L1 antibodies was randomly selected, all dosages were 3 mg/kg, and a blank solvent was injected for the control group. The administration manner was intraperitoneal injection, once per 2 days for a total of 8 times. The tumor volume was measured twice a week. Moreover, euthanasia was performed when the tumor volume of a single mouse reached 3000 mm^3.
compound,measurement,setting,value
N.N.[Cl][Pt][Cl] [Cisplatin],Tumor volume Day 8,[1],98 ± 24 mm^3
same,Tumor volume Day 18,[1],401 ± 249 mm^3
same,Tumor volume Day 25,[1],612±510 mm^3
same,TGITV %,[1]; doses as Table 9,68.2%
same,tumor volume compared with control or single-drug groups,"[1]; doses as Table 9, in words",has certain tumor inhibitory effect
same,Tumor free situation,[1]; doses as Table 9,0/5
same,weight change compared among groups,[1],no significant difference in average weight increase
same,mice died,"[1]; n=7/group, by experiment end-point",2
Keytruda: humanized monoclonal antibody from Merck & Co.; human PD-1 antibody,Tumor volume Day 8,[1],98 ± 30 mm^3
same,Tumor volume Day 18,[1],606 ± 247 mm^3
same,Tumor volume Day 25,[1],1267±619 mm^3
same,TGITV %,[1]; doses as Table 9,27.7%
same,Tumor free situation,[1]; doses as Table 9,0/7
same,weight change compared among groups,[1],no significant difference in average weight increase
same,Tumor volume Day 6,"[2]; 25 mg/kg intraperitoneal, once per 3 days, 6 administrations, Day 6, group division",169 ± 24 mm3
same,Tumor volume Day 18,"[2]; 25 mg/kg intraperitoneal, once per 3 days, 6 administrations, Day 18",302 ± 86 mm3
same,Tumor volume Day 26,"[2]; 25 mg/kg intraperitoneal, once per 3 days, 6 administrations, Day 26, end-point",111±77 mm3
same,TGITV %,"[2]; 25 mg/kg, Tumor Growth Inhibition Value",102%
same,Survival situation,"[2]; 25 mg/kg, end-point Day 26",100%
same,Tumor free situation,"[2]; 25 mg/kg, end-point Day 26, tumor-free mice/mice",2 of the 6 and 2/6
same,average tumor volume compared with control group,"[2]; 25 mg/kg, in words",tumor volume obviously smaller than that of the control group; also recorded: obviously smaller than that of the G1 control group
same,toxicity on the animals,"[2]; 25 mg/kg, in words",does not have obvious toxicity on the animals
same,TGITV %,[3]; 0.3 mg/kg,78.2%
same,Tumor volume Day 8,[3]; 0.3 mg/kg i.p.,113 ± 28 mm^3
same,Tumor volume Day 22,[3]; 0.3 mg/kg,115 ± 116 mm^3
same,Tumor volume Day 32,[3]; 0.3 mg/kg,437±515 mm^3
same,Survival situation,[3]; 0.3 mg/kg,6/6
same,Tumor free situation,[3]; 0.3 mg/kg,1/6
same,TGITV %,[3]; 1 mg/kg,94.0%
same,Tumor volume Day 8,[3]; 1 mg/kg i.p.,112 ± 27 mm^3
same,Tumor volume Day 22,[3]; 1 mg/kg,89 ± 86 mm^3
same,Tumor volume Day 32,[3]; 1 mg/kg,201±186 mm^3
same,Survival situation,[3]; 1 mg/kg,6/6
same,Tumor free situation,[3]; 1 mg/kg,2/6
same,TGITV %,[3]; 3 mg/kg,89.0%
same,Tumor volume Day 8,[3]; 3 mg/kg i.p.,113 ± 25 mm^3
same,Tumor volume Day 22,[3]; 3 mg/kg,88 ± 94 mm^3
same,Tumor volume Day 32,[3]; 3 mg/kg,277±397 mm^3
same,Survival situation,[3]; 3 mg/kg,6/6
same,Tumor free situation,[3]; 3 mg/kg,2/6
same,TGITV %,[3]; 10 mg/kg,92.4%
same,Tumor volume Day 8,[3]; 10 mg/kg i.p.,110 ± 28 mm^3
same,Tumor volume Day 22,[3]; 10 mg/kg,117 ± 111 mm^3
same,Tumor volume Day 32,[3]; 10 mg/kg,223±270 mm^3
same,Survival situation,[3]; 10 mg/kg,6/6
same,Tumor free situation,[3]; 10 mg/kg,2/6
same,average tumor volume compared with control group,"[3]; 0.3, 1, 3 and 10 mg/kg, in words",tumor volume obviously smaller than that of the control group; also recorded: obviously smaller than that of the G1 control group
Tecentriq: fully humanized monoclonal antibody from Genentech under Roche; human PD-L1 antibody,Tumor volume Day 8,[1],98 ± 26 mm^3
same,Tumor volume Day 18,[1],688 ± 409 mm^3
same,Tumor volume Day 25,[1],1234±977 mm^3
same,TGITV %,[1]; doses as Table 9,29.8%
same,Tumor free situation,[1]; doses as Table 9,0/7
same,weight change compared among groups,[1],no significant difference in average weight increase
same,TGITV %,[4]; 1 mg/kg,61.2%
same,Tumor volume Day 8,[4]; 1 mg/kg i.p.,144 ± 31 mm^3
same,Tumor volume Day 22,[4]; 1 mg/kg,506 ± 289 mm^3
same,Tumor volume Day 33,[4]; 1 mg/kg,1044±432 mm^3
same,Survival situation,[4]; 1 mg/kg,5/5
same,Tumor free situation,[4]; 1 mg/kg,0/5
same,TGITV %,[4]; 3 mg/kg,93.7%
same,Tumor volume Day 8,[4]; 3 mg/kg i.p.,147 ± 38 mm^3
same,Tumor volume Day 22,[4]; 3 mg/kg,418 ± 268 mm^3
same,Tumor volume Day 33,[4]; 3 mg/kg,1028±963 mm^3
same,Survival situation,[4]; 3 mg/kg,5/5
same,Tumor free situation,[4]; 3 mg/kg,0/5
same,TGITV %,[4]; 10 mg/kg,97.2%
same,Tumor volume Day 8,[4]; 10 mg/kg i.p.,153 ± 62 mm^3
same,Tumor volume Day 22,[4]; 10 mg/kg,68 ± 75 mm^3
same,Tumor volume Day 33,[4]; 10 mg/kg,219±326 mm^3
same,Survival situation,[4]; 10 mg/kg,5/5
same,Tumor free situation,[4]; 10 mg/kg,3/5
same,average tumor volume compared with control group,"[4]; 1-10 mg/kg, in words",tumor volume obviously smaller than that of the control group; also recorded: obviously smaller than that of the G1 control group
same,TGITV %,[5]; 3 mg/kg,79.7%
same,Tumor volume Day 6,"[5]; 3 mg/kg intraperitoneal, once per week, 2 weeks, Day 6, group division",88 ± 8 mm3
same,Tumor volume Day 17,"[5]; 3 mg/kg, Day 17",208 ± 72 mm3
same,Tumor volume Day 20,"[5]; 3 mg/kg, Day 20, end-point",237±89 mm3
same,Survival situation,"[5]; 3 mg/kg, end-point",7/7
same,Tumor free situation,"[5]; 3 mg/kg, end-point",no mouse cured in the treatment group and 0/7
same,average tumor volume compared with control group,"[5]; 3 mg/kg, in words",tumor volume obviously smaller than that of the control group
same,toxicity on the animals,"[5]; 3 mg/kg, in words",does not have obvious toxicity on the animals
same,TGITV %,[6]; 3 mg/kg,112.2%
same,Tumor volume Day 10,"[6]; 3 mg/kg i.p., once per 2 days x8, Day 10, group division",111 ± 25 mm^3
same,tumor volume / therapeutic effect compared with control and Tecentriq,"[6]; 3 mg/kg, same dosage and frequency, in words",significant difference in the volume of tumors between G2 or G3 and the control group (G1)
same,Tumor volume Day 20,"[6]; 3 mg/kg, Day 20",60 ± 70 mm^3
same,Tumor volume Day 27,"[6]; 3 mg/kg, Day 27, end-point",75±113 mm^3
same,Survival situation,"[6]; 3 mg/kg, end-point",5/5
same,Tumor free situation,"[6]; 3 mg/kg, end-point",0/5
same,animal weight / tolerance compared with control group,"[6]; 3 mg/kg, in words",no significant difference in average weight increase
